The assay concerns the target T1, human oxytocin receptor (Homo sapiens, UniProt P30559).
T1 sequence (P30559 1-389): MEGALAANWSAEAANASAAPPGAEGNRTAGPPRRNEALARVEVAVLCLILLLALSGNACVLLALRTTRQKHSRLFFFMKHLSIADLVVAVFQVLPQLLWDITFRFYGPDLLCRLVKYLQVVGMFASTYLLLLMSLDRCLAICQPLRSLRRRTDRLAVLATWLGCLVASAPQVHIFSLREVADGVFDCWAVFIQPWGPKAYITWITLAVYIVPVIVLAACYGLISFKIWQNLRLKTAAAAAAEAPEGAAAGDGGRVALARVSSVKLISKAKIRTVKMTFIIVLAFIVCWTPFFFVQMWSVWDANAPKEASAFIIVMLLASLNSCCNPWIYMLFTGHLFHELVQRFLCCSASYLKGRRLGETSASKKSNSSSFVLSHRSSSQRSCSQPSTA
Briefly: Oxytocin binding in CHO cell membranes expressing human oxytocin receptors. The note with it: [3H]oxytocin; for inhibition at 0.1 µM / OT % inhibition at 100 nM: 100 nM; for inhibition at 0.1 µM: read-out: OT % inhibition at 100 nM. The text has this: Oxytocin Binding in Chinese Hamster Ovary Cell Membranes Expressing Human Oxytocin Receptors
Chinese Hamster Ovary (CHO) cells stably transfected with the human oxytocin receptor (cf. Tanizawa et al., U.S. Pat. No. 5,466,584 (1995) to Rohto Pharmaceutical Co. Ltd., Osaka, Japan) were obtained from M. Thibonnier, Case Western Reserve University School of Medicine, Cleveland, Ohio. A. Passaging and Amplification of Cells: CHO cells transfected with the human oxytocin receptors obtained from M. Thibonnier (pcDNA3.1 vector) are allowed to grow to confluency (approx. >90%) in T-150 flasks under sterile conditions, in a cell culture medium of F-12 Nutrient Mixture (HAM) with L-glutamine (Gibco Cat. # 11765-054) containing 15 mM HEPES (Gibco Cat. # 15630-080), 1% antibiotic/antimycotic (add 5 mL 100×, Gibco Cat. # 15240-062 per 500 mL F-12), 400 μg/mL of Geneticin (add 4 mL of 50 mg/mL per 500 mL F-12) and 10% Fetal Bovine Serum (Qualified, heat inactivated, Gibco Cat. # 16140-063). The medium is removed by aspiration and the cells are washed with 10 mL of Hank's Balanced Salt solution (Gibco Cat. # 14175-095). The salt solution is removed by aspiration and the cells trypsinized with 5 mL of trypsin-EDTA (0.05% trypsin, 0.53 mM EDTA-4Na, Gibco Cat. # 25300-070) for 1 min The trypsin is removed by aspiration and the cells dislodged by tapping. Cell Culture medium (e.g. 30 mL for 1:30 split) is immediately added and mixed well to inactivate trypsin. 1 mL of detached cells is added to new culture flasks containing fresh Cell Culture medium (e.g. into 25 mL per T-150 flask), and mixed gently. The cells are incubated at 37° C. in 5% CO2. The medium is changed at 3 to 4 days interval (or as appropriate). The cells grow to confluency (approx. >75%–95%) within 7–8 days. All steps are done under sterile conditions. B. Membrane Preparation: The cells are washed twice gently with Hank's Balanced Salt solution (eg, use 10 mL per T-150 flask). The excess solution is removed and the cells bathed for 15–30 min. in an enzyme-free Cell Dissociation Buffer (eg, use 8 mL Hank's Based, Gibco Cat. # 13150-016 per T-150 flask) until cells are loosened. The contents are transferred to centrifuge tubes (50 mL size) kept in ice bath. All subsequent steps are done at 4° C. The tubes are centrifuged at 300×g for 15 min (1380 rpm on SORVAL, Model RT6000D, using rotor for 50 mL tubes). The supernatant is discarded and the cells suspended in homogenizing buffer (10 mM Tris-HCl containing 0.25 M sucrose and 1 mM EDTA, pH 7.4) ensuring that the volume of the buffer is about ten times the volume of the cell pellet. The cells are pooled into a centrifuge tube (50 mL) and homogenized with a Polytron at setting 6 for 10 sec. The homogenate is transferred into a Potter-Elvjehm homogenizer and homogenized with 3 strokes. The homogenate is centrifuged at 1500×g for 10 min at 4° C. (3100 rpm using SORVAL, model RT6000D, using rotor for 50 mL tubes). The pellet is discarded. The supernatant is centrifuged at 100,000×g for 60 min. at 4° C. (Beckman L8-80M ultracentrifuge; spin at 37,500 rpm with rotor type 70 Ti for 50 mL tubes; 38,000 rpm with type 80Ti for 15 mL tubes; or 35,800 rpm with rotor type 45Ti). The supernantant is discarded and the pellet suspended in 3 to 4 mL of Tris buffer (50 mM TRIS-HCl, pH 7.4). The protein content is estimated by the Bradford or Lowry method. The volume of the membrane suspension is adjusted with the membrane buffer (50 mM Tris-HCl containing 0.1% BSA and 0.1 mM PMSF) to give 3.0 mg/mL (or as appropriate) of protein. The membranes are aliquoted and stored at −70° C. C. Radioligand Binding Assay: In wells of a 96-well format microtiter plate, is added 90, 110 or 130 μL (to make up a final volume of 200 μL) of assay buffer containing 50 mM of Tris-HCl (pH 7.4), […], 1 mg % aprotinin, 1 mg % leupeptin, 2 mg % 1,10-phenanthroline, 10 mg % trypsin inhibitor, and 0.1 mM PMSF. […]

Molecules are shown by their SMILES.

Turning to `CN(Cc1cccnc1)C(=O)c1ccc2n1Cc1ccccc1N(C(=O)c1ccc(C3CCCCC3)cc1)C2` [Example 57, 10-(4-Cyclohexyl-benzoyl)-N-methyl-N-(3-pyridinylmethyl)-10,11-dihydro-5H-pyrrolo[2,1-c][1,4]benzodiazepine-3-carboxamide], the inhibition – broadly, the relative decrease from the control value, in per cent – at 0.1 µM was -4%.
Consider `COc1ccc(NC(=O)c2ccc3n2Cc2ccccc2N(C(=O)c2ccc(C4CCCCC4)cc2)C3)cc1` [Example 29, 10-(4-Cyclohexyl-benzoyl)-10,11-dihydro-5H-pyrrolo[2,1-c][1,4]benzodiazepine-3-carboxylic acid (4-methoxy-phenyl)-amide], for which the inhibition at 0.1 µM amounted to 42%.
As for `CN(C)/C=C/C(=O)c1ccc2n1Cc1ccccc1N(C(=O)c1ccc(C3CCCCC3)cc1)C2` [Example 20, (E)-1-[10-(4-Cyclohexyl-benzoyl)-10,11-dihydro-5H-pyrrolo[2,1-c][1,4]benzodiazepin-3-yl]-3-(dimethylamino)-2-propen-1-one], the inhibition at 0.1 µM was 43%.
As for `O=C(NCc1cccnc1)c1ccc2n1Cc1ccccc1N(C(=O)c1ccc(C3CCCCC3)cc1)C2` [Example 51, 10-(4-Cyclohexyl-benzoyl)-N-(3-pyridinylmethyl)-10,11-dihydro-5H-pyrrolo [2,1-c][1,4]benzodiazepine-3-carboxamide], the inhibition at 0.1 µM is -8%.
In the case of `O=C(O)c1ccc2n1Cc1ccccc1N(C(=O)c1ccc(C3CCCCC3)cc1)C2` [Example 22, 10-(4-Cyclohexyl-benzoyl)-10,11-dihydro-5H-pyrrolo[2,1 c][1,4]benzodiazepine-3-carboxylic acid], the “OT % inhibition at 100 nM” value was 34%.
Regarding `CN(C)CCN1CCN(C(=O)c2ccc3n2Cc2ccccc2N(C(=O)c2ccc(C4CCCCC4)cc2)C3)CC1` [Example 41, [10-(4-Cyclohexyl-benzoyl)-10,11-dihydro-5H-pyrrolo[2,1-c][1,4]benzodiazepin-3-yl]{4-[2-(dimethylamino)ethyl]-1-piperazinyl}methanone], the inhibition at 0.1 µM stood at 31%.
Regarding `Cc1ccccc1C(=O)NNC(=O)c1ccc2n1Cc1ccccc1N(C(=O)c1ccc(C3CCCCC3)cc1)C2` [Example 12, 10-(4-Cyclohexyl-benzoyl)-N′-(2-methylbenzoyl)-10,11-dihydro-5H-pyrrolo[2,1-c][1,4]benzodiazepine-3-carbonyl-hydrazide], the “OT % inhibition at 100 nM” value is reported as 47%.
With `CN1CCCN(C(=O)c2ccc3n2Cc2ccccc2N(C(=O)c2ccc(C4CCCCC4)cc2)C3)CC1` [Example 30, [10-(4-Cyclohexyl-benzoyl)-10,11-dihydro-5H-pyrrolo[2,1-c][1,4]benzodiazepin-3-yl](4-methyl-[1,4]-diazepan-1-yl)-methanone], the inhibition at 0.1 µM came out at 94%.
As to `O=C(NCCCn1ccnc1)c1ccc2n1Cc1ccccc1N(C(=O)c1ccc(C3CCCCC3)cc1)C2` [Example 36, 10-(4-Cyclohexyl-benzoyl)-N-[3-(1H-imidazol-1-yl)propyl]-10,11-dihydro-5H-pyrrolo[2,1-c][1,4]benzodiazepine-3-carboxamide], the inhibition at 0.1 µM turned out to be 13%.
Still for that read-out and setting: the result for `C=CCN1CCN(C(=O)c2ccc3n2Cc2ccccc2N(C(=O)c2ccc(C4CCCCC4)cc2)C3)CC1` [Example 43, (4-Allyl-1-piperazinyl)[10-(4-cyclohexyl-benzoyl)-10,11-dihydro-5H-pyrrolo[2,1-c][1,4]benzodiazepin-3-yl]methanone] reads 1%.
Regarding `CC(=O)NNC(=O)c1ccc2n1Cc1ccccc1N(C(=O)c1ccc(C3CCCCC3)cc1)C2` [Example 11, N′-Acetyl-10-(4-cyclohexyl-benzoyl)-10,11-dihydro-5H-pyrrolo[2,1-c][1,4]benzodiazepine-3-carbonyl-hydrazide], the IC50 (commonly the concentration at which inhibition is half-maximal) (value in parentheses, read-out: OT (IC50)) was 52.1 nM.
Turning to `CN(N)C(=O)c1ccc2n1Cc1ccccc1N(C(=O)c1ccc(C3CCCCC3)cc1)C2` [Example 21, 10-(4-Cyclohexyl-benzoyl)-N-methyl-10,11-dihydro-5H-pyrrolo[2,1-c][1,4]benzodiazepine-3-carboxylic acid hydrazide], the inhibition at 0.1 µM was found to be 68%.

Source of the values: US7202239B2, “Cyclohexylphenyl carboxamides tocolytic oxytocin receptor antagonists” (Wyeth, priority 2001, dated 2007).
